Values after ≈ are worked out from the molar mass of the structure shown. Where two headings read alike, the source gives them in different places. Non-standard residues stand in square brackets, D forms with d. Residues, ends and D or L forms follow the SMILES beside them. d1Nal = N[C@H](Cc1cccc2ccccc12)C(=O)O
What was measured:
physchem = settings: aqueous solution
Protocol: In additional studies, a variety of formulations of XMP.629 were tested for stability under various temperatures, such as 25° C., 40° C., and 50° C., and at various time points, such as 0.5, 1, and 2 months.
The solubility of XMP.629 acetate in various solvents was also evaluated.
Solubility studies were conducted using a variety of solvent systems and/or skin penetration enhancers.

Propionibacterium acnes = Propionibacterium acnes 6919
[1] = tested on: guinea pigs, Crl:(HA)BR (Albino Hartley); assay: Guinea pig sensitization (maximization) test; type: in vivo
Protocol: A sensitization (maximization) study was performed to evaluate the potential of XMP.629 to elicit skin sensitization reactions, such as allergic contact dermatitis, in guinea pigs via intradermal injection and topical patch applications. Procedures for conducting dermal studies that determine the potential of substances to induce delayed contact hypersensitivity are well-known and are described, for example, in Magnusson, B. et al., Allergic Contact Dermatitis in the Guinea Pig, Charles C. Thomas Publishing, Springfield, Ill., 1970 and Klecak, G., “Test Methods for Allergic Contact Dermatitis in Animals”, Dermatoxicology, 5th Edition, Taylor & Francis Publishing, Washington D.C., pages 437-459, the disclosures of which are incorporated herein by reference. A total of forty two-month old guinea pigs, twenty male and twenty female, from the strain CrI:(HA)BR(Albino Hartley) were employed for the entire regimen of the sensitization study.
First, a preliminary range-finding test was conducted to determine the test concentration of XMP.629 to be used in the second test, induction phase intradermal injection and topical patch application tests. The range-finding test was performed (i) intradermally on two guinea pigs (one male and one female) by injecting concentrations of 2, 4, 8, 16, and 20 mg/mL XMP.629; and (ii) topically on three guinea pigs (two males and one female) by administering patches containing concentrations of 5, 10, 15, and 20 mg/mL XMP.629. […] Topical patches were prepared by spreading a thick even layer of 0.4 mL of XMP.629 over a 2×2 cm of Whatman No.3 filter paper. Topical patches were applied to the torso of the guinea pig and covered by an overlapping plastic adhesive tape followed by additional wrapping tape. After a 24 hour exposure period, the patches were removed and the application sites were washed to removed any excess XMP.629 that may be present. […] Intradermal injection sites and topical application sites were evaluated using a sensitization grade rating. […] Each site could attain a maximum possible score of 3, as scored according to the rating listed below: • 0=No reaction • 1=Scattered mild erythema • 2=Moderate and diffuse erythema • 3=Intense erythema and edema
The second induction phase test was conducted as a two-stage operation with intradermal injections initially being administered followed one week later by exposure to a closed patch. […] Following a period of 24 and 48 hours, evaluations of the injection area were recorded. […] Dermal irritation scores of one or higher were recorded for doses of 8 mg/mL of XMP.629.
A third, challenge (maximization) test was performed two weeks (day 22) after initiation of the second, induction phase tests. […] Patches were sealed to the flanks for approximately 24 hours before observations were recorded.

P. aeruginosa = type: cell-based, Pseudomonas aeruginosa
Protocol: Control tubes containing only water or formulation buffer were prepared for each isolate. Initial growth controls were determined by removing 10 μL from the water control tube and diluting it by 100 fold. From this dilution, 10 μL was used for inoculation and for spreading over the surface onto Laked Blood Agar (LBA) (Anaerobe Systems, Morgan Hill, Calif.) plates. The tubes and plates were incubated in an anaerobic atmosphere at 37° C. for 48 h. […] MBC50 and 90 values represent where 50 and 90%, respectively, of the tested strain's MBC values are equal to or less than the indicated concentration.

E. coli = settings: for MBC: agent alone
[2] = tested on: CD [Crl:CD (SD) IGS BR] rats; assay: Rat acute oral toxicity test; type: in vivo
Protocol: XMP.629 was evaluated for acute toxicity following a single dose by oral gavage. The study consisted of three treatment groups of five male and five female CD [CrI:CD (SD) IGS BR] rats which received XMP.629 as a gel at concentrations of 0.1, 0.5, and 1.0% of XMP.629 respectively at a volume of 10 mL/kg. An additional group of five rats per sex served as the control and received control gel at the same volume. All rats were observed twice daily for morbidity, mortality, injury, and availability of food and water. Body weights were measured pretest and at different intervals during the study for all rats; observations for clinical signs were conducted pretest and at approximately 2 and 4 hours following the dose; and daily clinical observations were conducted daily until Day 14. At study termination, gross necropsies were conducted and macroscopic observations were recorded for all animals.

[3] = tested on: P. acnes strain ATCC 6919; assay: Kill curves / kill kinetics; type: cell-based, Propionibacterium acnes
Protocol: Kill curves were generated by incubating P. acnes strain ATCC 6919 with formulation buffer solutions of XMP.629 or other antibiotics at concentrations of […]. Samples were removed and plated at the indicated time periods. After incubation, colonies were counted and the kill kinetics determined for each drug.
For example, at a higher concentration of 4 μg/mL, a rapid reduction of viable cells in 8 hours to undetectable levels was observed. […] In additional kill curve studies against P. acnes, XMP.629 was bactericidal within 6 hours of exposure.

SMILES: CC(C)C[C@@H](NC(=O)[C@H](N)CCCCN)C(=O)N[C@H](Cc1ccccc1)C(=O)N[C@H](CCCNC(=N)N)C(=O)N[C@H](Cc1cccc2ccccc12)C(=O)N[C@H](CCC(N)=O)C(=O)N[C@H](C)C(=O)N[C@H](CCCCN)C(=O)N[C@H](Cc1cccc2ccccc12)C(N)=O [XMP.629, NH2-lys-leu-phe-arg-(3-(1-naphthyl)-ala)-gln-ala-lys-(3-(1-naphthyl)-ala)-CONH2] (H-[dK][dL][dF][dR][d1Nal][dQ][dA][dK][d1Nal]-NH2)
- solubility (physchem): ≥ 20 mg/mL
- Minimum Inhibitory Concentrations (Propionibacterium acnes): 1.00 µg/mL
- skin sensitization, overall ([1]; 10 mM sodium acetate solution, topical patch challenge): weak skin sensitizing response
- Dermal irritation scores ([1]; doses of 8 mg/mL): one or higher
- highest non-irritating dose ([1]; induction phase tests): 4 mg/mL
- challenge phase score ([1]; topical patch 4 mg/mL): did not score higher than one
- MIC90, XMP.629 data reported as MBC values (P. aeruginosa): 32 µg/mL (≈ 24.9 µM)
- MIC90, XMP.629 data reported as MBC values (P. aeruginosa; in FB (formulation buffer)): 0.5 µg/mL (≈ 0.39 µM)
- MBC (E. coli; E. coli 706U2-1081): 16 µg/mL (≈ 12.5 µM)
- XMP.629 MBC (E. coli; E. coli 4104 LF, XMP.629 alone): 16 µg/mL
- MBC (E. coli; E. coli 4104 LF): 8 µg/mL (≈ 6.23 µM)
- clinical observation ([2]; 1.0% XMP.629, four hours after administration, four males and one female, resolved by Day 2): Decreased activity
- clinical signs ([2]; concentrations of 0.1 or 0.5% XMP.629): No clinical signs of systemic toxicity
- minimum lethal dose ([2]; single oral gavage of gel, 10 mL/kg (10 mg/mL)): > 1 % XMP.629
- time to reduction of viable cells to undetectable levels ([3]; 4 μg/mL): 8 h
- exposure time until bactericidal ([3]; additional kill curve studies against P. acnes): ≤ 6 h
- culture at 19 hours ([3]; all concentrations tested): no detected organisms
- contact time to kill the microorganisms ([3]; depending on dose): up to 10 hours

Source: patent publication US20050148495A1, “Methods and materials including for treating acne” (priority 2003, published 2005)
